Where two headings read alike, the source gives them in different places.
Target: human SSTR2 (Homo sapiens (Human), UniProt P30874)
Experiment: Human SSTR2 intracellular cAMP functional assay for agonists (HTRF)
Format: cell-based
Experimental: Functional Assay for SSTR2 Agonists
General overview: All five SSTR subtypes are Gi coupled G-protein coupled receptors (GPCRs) that lead to decreases in intracellular cyclic AMP (cAMP) when activated by an agonist. […] Human SSTR2 intracellular cAMP assay is described below. The human SSTR1, 3, 4 and 5 assays follow the same protocol of SSTR2.
The cells are cultured at 37° C., 5% CO2 and 95% humidity. […] The cells are incubated for 20 minutes at 37° C. […] The cells are treated with 50 μL of lysis buffer (HRTF cAMP kit, Cisbio). […] The time-resolved fluorescent signal is read with a Tecan M1000Pro multiplate reader. The intracellular cAMP concentrations are calculated by regression to a standard curve and are plotted vs. the concentration of the compounds of the invention and the EC50 of the compounds are calculated using standard methods. All data manipulations are in GraphPad Prism v6.

[1] = CHO-K1 cells stably expressing human SSTR2, NKH477-stimulated cAMP, read-out: EC50 (inhibition of cAMP activities via human SST2R)

Chain of human SSTR2 (P30874 whole entry): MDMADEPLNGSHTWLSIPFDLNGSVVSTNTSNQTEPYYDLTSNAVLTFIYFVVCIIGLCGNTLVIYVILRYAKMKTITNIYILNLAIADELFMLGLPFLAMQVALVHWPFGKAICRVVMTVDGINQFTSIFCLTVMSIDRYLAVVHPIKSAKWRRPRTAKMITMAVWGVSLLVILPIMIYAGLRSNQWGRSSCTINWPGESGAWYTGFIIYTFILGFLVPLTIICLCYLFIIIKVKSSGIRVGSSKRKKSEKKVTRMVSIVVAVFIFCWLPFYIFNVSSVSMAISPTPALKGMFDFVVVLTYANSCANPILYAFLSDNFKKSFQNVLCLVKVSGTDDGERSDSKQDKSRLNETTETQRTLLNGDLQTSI

Row | SMILES | EC50 [1] [nM] | EC50 [nM]
1 | COC(=O)Nc1c(F)cc(F)cc1-c1ccc2ncc(-c3cc(C)cc(F)c3)c(N3CC[C@@H](N)[C@H](OC)C3)c2c1 (relative stereo) [2-235, methyl N-(2-{4-[trans-4-amino-3-methoxypiperidin-1-yl]-3-(3-fluoro-5-methylphenyl)quinolin-6-yl}-4,6-difluorophenyl)carbamate] | < 10 | 
2 | Cn1cc(-c2ccc3ncc(-c4cc(F)cc(F)c4)c(N4CC[C@H]5NCCO[C@@H]5C4)c3c2)c(N)n1 (relative stereo) [2-245, 4-{4-[trans-octahydro-1H-pyrido[3,4-b]morpholin-6-yl]-3-(3,5-difluorophenyl)quinolin-6-yl}-1-methyl-1H-pyrazol-3-amine] | < 10 | 
3 | Cc1ccnc(-c2ccc3ncc(-c4cc(F)cc(F)c4)c(N4CC[C@H]5NCCO[C@@H]5C4)c3c2)c1N (relative stereo) [2-247, 2-{4-[trans-octahydro-1H-pyrido[3,4-b]morpholin-6-yl]-3-(3,5-difluorophenyl)quinolin-6-yl}-4-methylpyridin-3-amine] | < 10 | 
4 | COCCNc1c(C#N)cncc1-c1ccc2ncc(-c3cc(F)cc(F)c3)c(N3CC[C@H]4NCCO[C@@H]4C3)c2c1 (relative stereo) [2-252, 5-{4-[trans-octahydro-1H-pyrido[3,4-b]morpholin-6-yl]-3-(3,5-difluorophenyl)quinolin-6-yl}-4-[(2-methoxyethyl)amino]pyridine-3-carbonitrile] | < 10 | 
5 | Cn1ncc(-c2ccc3ncc(-c4cc(F)cc(F)c4)c(N4CC[C@H]5NCCO[C@@H]5C4)c3c2)c1C=NO (relative stereo) [2-253, N-[(4-{4-[trans-octahydro-1H-pyrido[3,4-b]morpholin-6-yl]-3-(3,5-difluorophenyl)quinolin-6-yl}-1-methyl-1H-pyrazol-5-yl)methylidene]hydroxylamine] | < 10 | 
6 | Nc1cncnc1-c1ccc2ncc(-c3cc(F)cc(F)c3)c(N3CC[C@H]4NCCO[C@@H]4C3)c2c1 (relative stereo) [2-255, 4-{4-[trans-octahydro-1H-pyrido[3,4-b]morpholin-6-yl]-3-(3,5-difluorophenyl)quinolin-6-yl}pyrimidin-5-amine] | 10 to 100 | 
7 | Oc1c(F)cncc1-c1ccc2ncc(-c3cc(F)cc(F)c3)c(N3CC[C@H]4NCCO[C@@H]4C3)c2c1 (relative stereo) [2-256] | 10 to 100 | 
8 | Cn1cc(-c2ccc3ncc(-c4cc(F)cc(F)c4)c(N4CC[C@H]5NCCO[C@@H]5C4)c3c2)c(C(N)=O)n1 (relative stereo) [2-257, 4-{4-[trans-octahydro-1H-pyrido[3,4-b]morpholin-6-yl]-3-(3,5-difluorophenyl)quinolin-6-yl}-1-methyl-1H-pyrazole-3-carboxamide] | 10 to 100 | 
9 | Oc1ncc(F)cc1-c1ccc2ncc(-c3cc(F)cc(F)c3)c(N3CC[C@H]4NCCO[C@@H]4C3)c2c1 (relative stereo) [2-259] | < 10 | 
10 | Cn1cc(-c2ccc3ncc(-c4cc(F)cc(F)c4)c(N4CC[C@H]5NCCO[C@@H]5C4)c3c2)c(C=NO)n1 (relative stereo) [2-260, N-[(4-{4-[trans-octahydro-1H-pyrido[3,4-b]morpholin-6-yl]-3-(3,5-difluorophenyl)quinolin-6-yl}-1-methyl-1H-pyrazol-3-yl)methylidene]hydroxylamine] | < 10 | 
11 | N#Cc1ccnc(-c2ccc3ncc(-c4cc(F)cc(F)c4)c(N4CC[C@H]5NCCO[C@@H]5C4)c3c2)c1F (relative stereo) [2-261, 2-{4-[trans-octahydro-1H-pyrido[3,4-b]morpholin-6-yl]-3-(3,5-difluorophenyl)quinolin-6-yl}-3-fluoropyridine-4-carbonitrile] | 10 to 100 | 
12 | Oc1cccnc1-c1ccc2ncc(-c3cc(F)cc(F)c3)c(N3CC[C@H]4NCCO[C@@H]4C3)c2c1 (relative stereo) [2-263, 2-{4-[trans-octahydro-1H-pyrido[3,4-b]morpholin-6-yl]-3-(3,5-difluorophenyl)quinolin-6-yl}pyridin-3-ol] | < 10 | 
13 | Nc1cc(F)cnc1-c1ccc2ncc(-c3cc(F)cc(F)c3)c(N3CC[C@H]4NCCO[C@@H]4C3)c2c1 (relative stereo) [2-265, 2-{4-[trans-octahydro-1H-pyrido[3,4-b]morpholin-6-yl]-3-(3,5-difluorophenyl)quinolin-6-yl}-5-fluoropyridin-3-amine] | < 10 | 
14 | CON=Cc1cncc(-c2ccc3ncc(-c4cc(F)cc(F)c4)c(N4CC[C@H]5NCCO[C@@H]5C4)c3c2)c1N (relative stereo) [2-266] | < 10 | 
15 | Nc1c(-c2ccc3ncc(-c4cc(F)cc(F)c4)c(N4CC[C@H]5NCCO[C@@H]5C4)c3c2)cncc1C1CC1 (relative stereo) [2-267, 3-{4-[trans-octahydro-1H-pyrido[3,4-b]morpholin-6-yl]-3-(3,5-difluorophenyl)quinolin-6-yl}-5-cyclopropylpyridin-4-amine] | 10 to 100 | 
16 | Nc1c(-c2ccc3ncc(-c4cc(F)cc(F)c4)c(N4CC[C@H]5NCCO[C@@H]5C4)c3c2)cnn1C1COC1 (relative stereo) [2-268, 4-{4-[trans-octahydro-1H-pyrido[3,4-b]morpholin-6-yl]-3-(3,5-difluorophenyl)quinolin-6-yl}-1-(oxetan-3-yl)-1H-pyrazol-5-amine] | 10 to 100 | 
17 | CC#Cc1cncc(-c2ccc3ncc(-c4cc(F)cc(F)c4)c(N4CC[C@H]5NCCO[C@@H]5C4)c3c2)c1N (relative stereo) [2-272, 3-{4-[trans-octahydro-1H-pyrido[3,4-b]morpholin-6-yl]-3-(3,5-difluorophenyl)quinolin-6-yl}-5-(prop-1-yn-1-yl)pyridin-4-amine] | < 10 | 
18 | C#Cc1cncc(-c2ccc3ncc(-c4cc(F)cc(F)c4)c(N4CC[C@H]5OCCN[C@@H]5C4)c3c2)c1N (relative stereo) [2-274, 3-{4-[trans-octahydro-1H-pyrido[3,4-b]morpholin-6-yl]-3-(3,5-difluorophenyl)quinolin-6-yl}-5-ethynylpyridin-4-amine] | < 10 | 
19 | Nc1c(Cl)ccnc1-c1ccc2ncc(-c3cc(F)cc(F)c3)c(N3CC[C@H]4NCCO[C@@H]4C3)c2c1 (relative stereo) [2-275, 2-{4-[trans-octahydro-1H-pyrido[3,4-b]morpholin-6-yl]-3-(3,5-difluorophenyl)quinolin-6-yl}-4-chloropyridin-3-amine] | < 10 | 
20 | Nc1cccnc1-c1ccc2ncc(-c3cc(F)cc(F)c3)c(N3CC[C@H]4NCCO[C@@H]4C3)c2c1 (relative stereo) [2-283, 2-{4-[trans-octahydro-1H-pyrido[3,4-b]morpholin-6-yl]-3-(3,5-difluorophenyl)quinolin-6-yl}pyridin-3-amine] | 10 to 100 | 
21 | O=c1[nH]c2cc(-c3ccc4ncc(-c5cc(F)cc(F)c5)c(N5CC[C@H]6NCCO[C@@H]6C5)c4n3)cc(F)c2[nH]1 (relative stereo) [3-10, 6-{8-[trans-octahydro-1H-pyrido[3,4-b]morpholin-6-yl]-7-(3,5-difluorophenyl)-1,5-naphthyridin-2-yl}-4-fluoro-2,3-dihydro-1H-1,3-benzodiazol-2-one] | < 10 | 
22 | Cc1cc(C)cc(-c2nnc3cc(Cl)c(-c4cc(F)cc(C(N)=O)c4)cc3c2N2CCC(N)CC2)c1 [1-1, 3-[4-(4-aminopiperidin-1-yl)-7-chloro-3-(3,5-dimethylphenyl)cinnolin-6-yl]-5-fluorobenzamide] | < 10 | 
23 | Cc1cc(C)cc(-c2nnc3cc(Cl)c(-c4cccc(C#N)c4O)cc3c2N2CCC(N)CC2)c1 [1-2, 3-[4-(4-aminopiperidin-1-yl)-7-chloro-3-(3,5-dimethylphenyl)cinnolin-6-yl]-2-hydroxybenzonitrile] | < 10 | 
24 | Cc1cc(C)cc(-c2nnc3cc(Cl)c(Cl)cc3c2N2CCC(N)CC2)c1 [1-3, 1-[6,7-dichloro-3-(3,5-dimethylphenyl)cinnolin-4-yl]piperidin-4-amine] |  | 100 to 1000
25 | Cc1cc(F)cc(-c2nnc3cc(Cl)c(-c4cc(F)cc(C(N)=O)c4)cc3c2N2CCC(N)CC2)c1 [1-4, 3-[4-(4-aminopiperidin-1-yl)-7-chloro-3-(3-fluoro-5-methylphenyl)cinnolin-6-yl]-5-fluorobenzamide] | < 10 | 
26 | Cc1cc(F)cc(-c2nnc3cc(Cl)c(-c4cccc(C#N)c4O)cc3c2N2CCC(N)CC2)c1 [1-7, 3-[4-(4-aminopiperidin-1-yl)-7-chloro-3-(3-fluoro-5-methylphenyl)cinnolin-6-yl]-2-hydroxybenzonitrile] | < 10 | 
27 | Cc1cc(F)cc(-c2nnc3cc(Cl)c(-c4ccc5[nH]c(=O)[nH]c5c4)cc3c2N2CCC(N)CC2)c1 [1-8, 5-[4-(4-aminopiperidin-1-yl)-7-chloro-3-(3-fluoro-5-methylphenyl)cinnolin-6-yl]-2,3-dihydro-1H-1,3-benzodiazol-2-one] | < 10 | 
28 | Cc1cc(F)cc(-c2nnc3cc(Cl)c(-c4cccc5[nH]c(=O)[nH]c45)cc3c2N2CCC(N)CC2)c1 [1-9, 4-[4-(4-aminopiperidin-1-yl)-7-chloro-3-(3-fluoro-5-methylphenyl)cinnolin-6-yl]-2,3-dihydro-1H-1,3-benzodiazol-2-one] |  | 10 to 100
29 | N#Cc1cccc(-c2cc3c(N4CCC(N)CC4)c(-c4cc(Cl)cc(Cl)c4)nnc3cc2Cl)c1O [1-11, 3-[4-(4-aminopiperidin-1-yl)-7-chloro-3-(3,5-dichlorophenyl)cinnolin-6-yl]-2-hydroxybenzonitrile] | < 10 | 
30 | Cc1cc(Cl)cc(-c2nnc3cc(Cl)c(-c4cc(F)cc(C#N)c4O)cc3c2N2CCC(N)CC2)c1 [1-12, 3-[4-(4-aminopiperidin-1-yl)-7-chloro-3-(3-chloro-5-methylphenyl)cinnolin-6-yl]-5-fluoro-2-hydroxybenzonitrile] | < 10 | 
